Source: patent US9486507B2, “Pro-coagulant compounds and methods of use thereof” (priority 2011, dated 2016)
“And” between values parts separate entries of the source, which are not always exact repeats. Identical values can stand only once.

Experiments:
[1] = target: T1, FXa or the prothrombinase complex (Homo sapiens, UniProt P00742); assay: FXa / prothrombinase activity in purified thrombin generation assay; type: biochemical; conditions: 1 μM; FXa 0.05 ug/mL, with or without FV
T1 construct: Under these conditions FIXa cleaves the zymogen FX into the active form FXa
Description: In another experiment it was determined whether or not the compounds of the present disclosure directly enhance the activity of FXa or the prothrombinase complex.

FVIIa [2] = target: T2, FVIIa (Homo sapiens, UniProt P08709); assay: FXa generation assay with human FVIIa; type: biochemical; conditions: absence of PL
T2 construct: The two-chain Factor VIIa is a polypeptide produced from FVII by hydrolysis of the Arg152-Ile153 peptide bond of FVII; purchased Haematologic Technologies
T2 sequence (P08709 61-212 limits assumed): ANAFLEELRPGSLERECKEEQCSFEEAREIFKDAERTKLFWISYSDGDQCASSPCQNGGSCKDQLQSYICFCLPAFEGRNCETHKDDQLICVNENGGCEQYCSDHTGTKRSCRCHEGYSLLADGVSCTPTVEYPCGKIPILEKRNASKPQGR
T2 sequence (P08709 213-466 limits assumed): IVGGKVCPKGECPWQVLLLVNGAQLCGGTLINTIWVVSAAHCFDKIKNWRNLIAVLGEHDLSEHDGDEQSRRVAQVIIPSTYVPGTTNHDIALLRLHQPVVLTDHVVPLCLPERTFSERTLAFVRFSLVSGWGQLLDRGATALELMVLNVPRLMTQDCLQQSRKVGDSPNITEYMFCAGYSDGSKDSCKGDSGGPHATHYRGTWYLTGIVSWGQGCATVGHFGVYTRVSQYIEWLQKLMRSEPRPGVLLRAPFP
Description: (§1) Similarly, in order to measure the catalytic activity of FVIIa, a FXa generation assay measuring the ability of the compounds of the present disclosure to enhance the catalytic activity of FVIIa was established. The difference between the two assays was that the final concentration of 10 nM hFIXa was replaced with 10 nM hFVIIa. The remaining reagents and assay procedures described above were unchanged.

[3] = tested on: FIX-deficient human plasma; assay: ROTEM in FIX-deficient human plasma; type: biochemical
Description: (§2) Compounds of the present disclosure were tested by rotational thromboelastometry to evaluate coagulation parameters such as clotting time (CT), α-angle, clot formation time (CFT), maximum clot firmness (MCF). Briefly, lyophilized and citrated FVIII deficient human plasma (Siemens) was reconstituted with 1 mL of distilled water, allowed to stand for 20 min at RT and mixed well before use. Alternatively, an aliquot of citrated (non-lyophilized) FVIII deficient human plasma (HRF, George King, Precision Biologics, or real-time donors) was thawed for 10 min in a 37° C. water bath and when needed centrifuged at 2800 g for 5 min at 25° C. FVIII deficient plasma was spiked with lyophilized platelets (Helena Laboratories, final concentration 0.5×10^8 cells/ml) and compounds, FVIII, or both compound and FVIII. Dilutions of compounds of the present disclosure and controls, such as FVIII, were prepared in PBS (—Ca, —Mg). Next, 300 μl of the spiked plasma was transferred to a ROTEM cup already containing 20 μl of StarTEM (concentrated calcium chloride solution) and 20 μl of lipidated TF (American Diagnostica, final concentration 10 fM) or Kaolin (Sigma-Aldrich, final concentration 0.4 μg/ml) and recording was initiated. The cups were maintained at 37° C. during the testing.

[4] = tested on: FVIII deficient human plasma; assay: Thrombin generation assay (TGA) in FVIII-deficient plasma; type: biochemical; conditions: for Thrombin Above Baseline (nM): HRF FVIII-deficient plasma (1)
[5] = tested on: FVIII deficient human plasma; assay: Rotational thromboelastometry (ROTEM) in FVIII-deficient human plasma; type: biochemical
Description: as §2

platelets = assay: Platelet aggregation (aggregometer); type: cell-based
Description: ADP was used as a positive control for platelet aggregation.

FVIIa [6] = target: T2, FVIIa; assay: Km/Kcat of FVIIa for the substrate FX (FXa generation assay); type: biochemical; conditions: presence vs absence of compound 5
Description: as §1
To determine the Km and Kcat of FIXa or FVIIa for the substrate FX, the FXa generation assay described above was used with the following modifications. A single peptide concentration was tested (typically one that gave the maximal rate of FXa generation) and the concentration of all assay components was similar to that described above with the exception of FX. Reactions were set up with varying concentrations of FX ranging between 400 and 0.8 nM and the rates of FXa generation were determined for each peptide at the different FX concentrations tested as described above. For each peptide assayed, the data were fitted to the following equation that gives the Michaelis-Menten constant (Km) and the Vmax for FIXa or FVIIa: v=Vmax [FX]/Km+[FX], wherein v is the rate of FXa generation determined as described above. The catalytic constant (Kcat) was calculated by normalizing the Vmax to the enzyme concentration.

FIXa = FIXa (Homo sapiens, UniProt P00740); assay: Km/Kcat of FIXa for the substrate FX (FXa generation assay); type: biochemical; parameters: purchased Haematologic Technologies
Description: To determine the Km and Kcat of FIXa or FVIIa for the substrate FX, the FXa generation assay described above was used with the following modifications. […] Reactions were set up with varying concentrations of FX ranging between 400 and 0.8 nM and the rates of FXa generation were determined for each peptide at the different FX concentrations tested as described above. […] The catalytic constant (Kcat) was calculated by normalizing the Vmax to the enzyme concentration.
FIXa was used at 10 nM, and FX was used at 10-1000 nM. The assay was performed in the presence of phospholipids (PL) and calcium chloride.

[7] = FIX-deficient plasma (containing platelets), 10 μM
[8] = FIX-deficient plasma, compound 5 2.5 μM + FIX-Fc 0.25 IU/mL
[9] = human HemB plasma, lyophilized platelets, 10 fM TF, 5 μM
[10] = human HemB plasma, lyophilized platelets, 10 fM TF, 10 μM
[11] = human HemB plasma, 5 μM, anti-FIX pab +
[12] = human HemB plasma, 5 μM, anti-FIX pab −
[13] = human HemB plasma, 10 μM, anti-FIX pab −
[14] = FVIII-deficient plasma (containing platelets), 10 μM
[15] = FVIII-deficient plasma, compound 5 2.5 μM + FVIIa-Fc 10 IU/mL
[16] = FVIII-deficient plasma, compound 5 2.5 μM + FVIIa-Fc 20 IU/mL
[17] = human HemA plasma, 5 μM, anti-FVIII pab +
[18] = human HemA plasma, 5 μM, anti-FVIII pab −
[19] = human HemA plasma, 10 μM, anti-FVIII pab +
[20] = human HemA plasma, 10 μM, anti-FVIII pab −
[21] = hFIXa 10 nM, FX 10-1000 nM, PL, CaCl2, compound 1 3 μM, compounds 3, 4, 5 1 μM, compound C 10 μM

FIXa, sequence (P00740 47-191 limits assumed): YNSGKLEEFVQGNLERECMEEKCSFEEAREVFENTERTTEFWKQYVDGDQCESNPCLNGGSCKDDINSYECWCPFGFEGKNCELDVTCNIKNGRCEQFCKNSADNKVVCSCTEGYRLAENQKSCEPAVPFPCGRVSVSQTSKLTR
FIXa, sequence (P00740 227-461 limits assumed): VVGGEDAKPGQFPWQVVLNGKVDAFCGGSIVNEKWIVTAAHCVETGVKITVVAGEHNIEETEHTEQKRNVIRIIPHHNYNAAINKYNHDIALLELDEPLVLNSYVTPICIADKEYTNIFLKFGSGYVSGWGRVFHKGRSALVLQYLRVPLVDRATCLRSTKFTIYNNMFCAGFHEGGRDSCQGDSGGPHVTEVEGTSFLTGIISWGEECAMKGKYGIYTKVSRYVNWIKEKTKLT
T1 sequence (P00742 41-179 limits assumed): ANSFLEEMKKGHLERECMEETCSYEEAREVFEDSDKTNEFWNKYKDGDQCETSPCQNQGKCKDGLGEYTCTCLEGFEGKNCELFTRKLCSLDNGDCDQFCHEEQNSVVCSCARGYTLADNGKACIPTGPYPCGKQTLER
T1 sequence (P00742 235-488 limits assumed): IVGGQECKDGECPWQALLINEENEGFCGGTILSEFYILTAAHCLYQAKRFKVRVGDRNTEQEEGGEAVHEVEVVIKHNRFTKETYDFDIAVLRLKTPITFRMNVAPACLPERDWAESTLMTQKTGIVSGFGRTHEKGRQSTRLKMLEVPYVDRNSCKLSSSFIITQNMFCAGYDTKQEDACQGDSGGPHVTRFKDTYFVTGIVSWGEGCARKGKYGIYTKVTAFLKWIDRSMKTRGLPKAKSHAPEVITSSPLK

rRAPGKLTCLASYCWLFWTGIA [Compound 5]
catalytic activity of FXa or the prothrombinase complex [1]: did not substantially increase the catalytic activity of FXa or the prothrombinase complex
increase of FVIIa activity, % of control (FVIIa [2]): about 10%
Clotting time, sec [3, 7]: 1,311 sec and 1,328 sec
α-angle, degrees [3, 7]: 15 degrees and 19 degrees
Clotting time [3, 8]: 876.5 s
α-angle [3, 8]: 39.5 degrees
Clotting time [3, 9]: 836 s and 810 s
α-angle, degrees [3, 9]: 24 degrees and 20 degrees
Clotting time [3, 10]: 804 s and 773 s
α-angle, degrees [3, 10]: 22 degrees and 21 degrees
Clotting time, sec [3, 11]: 1,660 sec and 1,661 sec
α-angle, degrees [3, 11]: 9 degrees
Clotting time, sec [3, 12]: 1,420 sec and 1,556 sec
α-angle, degrees [3, 12]: 11 degrees and 12 degrees
α-angle, degrees ([3]; human HemB plasma, 10 μM, anti-FIX pab +): 13 degrees and 10 degrees
Clotting time, sec [3, 13]: 1,182 sec and 1,194 sec
α-angle, degrees [3, 13]: 12; 12 degrees
additive effect with FVIII on thrombin generation ([4]; 0.1 pM lipidated TF, low amounts of rFVIII (FIG. 2)): shows additive thrombin generation activity with FVIII
amount of thrombin generated, as rFVIII equivalent ([4]; 10 μM compound 5, 0.1 pM lipTF): about 0.2 IU/mL
amount of thrombin generated, compared with FVIII ([4]; 5 or 10 μM compound 5, 0.1 pM lipTF): > 0.1 U/mL
Thrombin Above Baseline (nM) ([4]; 2.5 μM): + (1-10 nM (1) or 1-29 nM (2) (+))
Thrombin Above Baseline (nM) ([4]; 5 μM): + (1-10 nM (1) or 1-29 nM (2) (+))
Thrombin Above Baseline (nM) ([4]; 10 μM): ++ (11-20 nM (1) or 30-59 nM (2) (++))
Thrombin Above Baseline (nM) ([4]; 20 μM): ++ (11-20 nM (1) or 30-59 nM (2) (++))
lag time ([4]; compound 5 at 10 μM and 5 μM, 0.1 pM lipTF (FIG. 3)): shorter lag time than 0.1 or 0.25 U/mL of FVIII
Clotting time [5, 14]: 277 s and 298 s
α-angle, degrees [5, 14]: 34 degrees and 27 degrees
Clotting time [5, 15]: 303.5 s
α-angle [5, 15]: 38.5 degrees
Clotting time [5, 16]: 115 s
α-angle [5, 16]: 63 degrees
calcium dependence of procoagulant effect (clotting time) ([5]; compound 5 2.5 and 5 μM, 0 to about 16 mM calcium): sensitive to the calcium concentration
Clotting time [5, 17]: 197 s and 194 s
α-angle, degrees [5, 17]: 48 degrees and 53 degrees
Clotting time [5, 18]: 154 s and 164 s
α-angle, degrees [5, 18]: 51 degrees and 58 degrees
Clotting time [5, 19]: 108 s and 110 s
α-angle, degrees [5, 19]: 67 degrees and 69 degrees
Clotting time [5, 20]: 101 s and 105 s
α-angle, degrees [5, 20]: 70 degrees and 68 degrees
effect on ADP-activated platelets (platelets; 30 μM): only a moderate effect
induction of platelet aggregation (platelets; compound 5 about 30 μM, compound 22 10 μM and 30 μM): did not induce platelet aggregation
effect on ADP-activated platelets (platelets; concentration of up to 10 μM): did not exhibit a significant effect
Δ kcat FVIIa (FVIIa [6]): 2419
Km (FIXa; [21]): 0.011 ± 0.0023 µM
kcat (FIXa; [21]): 0.000298 s⁻¹
Δ kcat FIXa (FIXa; presence vs absence of compound 5): 199
Δ kcat (FIXa; relative to buffer (1.0), compound 1 3 μM, compounds 3, 4, 5 1 μM, compound C 10 μM): 199
